Measurements reported in patent publication US7999004B2, “Compounds having estrogenic activity” (National Taiwan University, priority 2007, dated 2011).
Read-outs that look alike come from different tables or passages of the source.

Columns and labels:
[1] = target: T1, GAL4-hERα (Homo sapiens, UniProt P03372); test: Transactivation assay for estrogen activity, GAL4-hERα LBD chimeric receptor with (UAS)4-alkaline phosphatase reporter in CHO-K1 cells; type: cell-based; details: for EC50: CHO-K1 cells, ALP reporter, read-out: EC50 value for ERα (converted); for ALP activity with increasing concentration, GAL4-hERα / concentration at which the maximal activation of ERα is achieved: dose response curve; for maximal activation of ERα: at the concentration of maximal activation (compound 2: 40 μg/mL; compound 6: 20 μg/mL)
T1 construct: GAL4hERα (or β) LBD chimeric receptors; expressed in transfected cells; host or cells: CHO-K1 (CCRC 60006), transient co-transfection with Fugene 6
T1 sequence (P03372 311-547 limits assumed): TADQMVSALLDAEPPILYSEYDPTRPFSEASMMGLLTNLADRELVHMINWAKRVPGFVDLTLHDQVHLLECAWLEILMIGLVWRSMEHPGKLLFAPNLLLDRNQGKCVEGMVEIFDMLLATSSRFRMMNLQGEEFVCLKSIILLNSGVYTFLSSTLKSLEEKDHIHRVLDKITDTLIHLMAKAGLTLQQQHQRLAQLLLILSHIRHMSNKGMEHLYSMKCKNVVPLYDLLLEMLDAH
Description: (§1) To evaluate the estrogen activity, the pBKCMV plasmid containing the gene of GAL4hERα (or β) LBD chimeric receptors was co-transfected with a plasmid containing the (UAS)4-alkaline phosphatase reporter gene into CHO-K1 cells. When a test sample was reacted with ER, the GAL4 was mediated to bind specifically with the UAS upstream of the reporter gene so as to activate the expression of the reporter gene, i.e. the alkaline phosphatase (ALP) enzyme. By measuring the alkaline phosphatase activity, we can detect the estrogen activity of the sample.
(§2) Cells were grown to confluence and seeded into 96-well microplates for a day. Before transfection, the two plasmids DNA in equal proportions were added to a mixture of the Fugene 6 transfection reagent and Ham's F12 medium, and then incubated for 20 min. At transfection, the fugene 6-DNA mixture was then added to the cells after the original FBS containing medium was removed.
(§3) After a 2-day culture, an aliquot of the medium was taken for the analysis of alkaline phosphatase activity.

[2] = target: T2, GAL4-hERβ (Homo sapiens, UniProt Q92731); test: Transactivation assay for estrogen activity, GAL4-hERβ LBD chimeric receptor with (UAS)4-alkaline phosphatase reporter in CHO-K1 cells; type: cell-based; details: for EC50: CHO-K1 cells, ALP reporter, read-out: EC50 value for ERβ (converted); for ALP activity with increasing concentration, GAL4-hERβ / concentration at which the maximal activation of ERβ is achieved: dose response curve; for maximal activation of ERβ: at the concentration of maximal activation (compound 2: 40 μg/mL; compound 6: 20 μg/mL)
T2 construct: GAL4hERα (or β) LBD chimeric receptors; expressed in transfected cells; host or cells: CHO-K1 (CCRC 60006), transient co-transfection with Fugene 6
T2 sequence (Q92731 264-498 limits assumed): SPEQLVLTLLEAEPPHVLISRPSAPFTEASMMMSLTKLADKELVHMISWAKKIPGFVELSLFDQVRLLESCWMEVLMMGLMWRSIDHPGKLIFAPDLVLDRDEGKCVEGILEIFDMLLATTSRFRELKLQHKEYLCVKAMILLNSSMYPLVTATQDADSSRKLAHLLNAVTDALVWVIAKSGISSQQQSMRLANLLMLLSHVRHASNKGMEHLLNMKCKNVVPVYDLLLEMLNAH
Description: as §1, §2, §3

[3] = three concentrations, fraction with compound 5

Compound | EC50 [1] | EC50 ([1]; value in parentheses) | ALP activity with increasing concentration, GAL4-hERα [1] | concentration at which the maximal activation of ERα is achieved [1] | concentration at which the maximal activation of ERα is achieved ([1]; value in parentheses) | EC50 [2] | EC50 ([2]; value in parentheses) | ALP activity with increasing concentration, GAL4-hERβ [2] | concentration at which the maximal activation of ERβ is achieved [2] | concentration at which the maximal activation of ERβ is achieved ([2]; value in parentheses) | ALP activity, activation of GAL4-hERα [1, 3] | ALP activity, activation of GAL4-hERβ [2, 3] | maximal activation of ERα [1] | maximal activation of ERβ [2]
COC1=C(OC)C(=O)C(C/C=C(\C)CC/C=C(\C)CC/C=C(\C)CC/C=C(\C)CC/C=C(\C)CC/C=C(\C)CC/C=C(\C)CC/C=C(\C)CCC=C(C)C)=C(C)C1=O [compound 3, coenzyme Q9] | 51 µM | 13.3 µM | dose-dependent increase | 20 µg/mL | 25.2 µM | 1.06 µM | 1.06 µM | dose-dependent increase | 20 µg/mL | 25.2 µM | – | – | – | –
COc1cc(/C=C/C(=O)OCC(O)CO)ccc1O (stereo not shown) [compound 5, 1-feruloyl glycerol] | – | – | – | – | – | – | – | – | – | – | significant increases in the ALP activity | significant increases in the ALP activity | – | –
CC(C)=CCC/C(C)=C/CC/C(C)=C/CC/C(C)=C/CC/C(C)=C/CC/C(C)=C/CC/C(C)=C/CC/C(C)=C/CC[C@]1(C)CCc2cc(O)c(C)c(C)c2O1 [compound 6, γ-tocopherol-9] | 12.7 µM | 12.7 µM | dose-dependent increase | 20 µg/mL | 26.64 µM | 3.19 µM | 3.2 µM | dose-dependent increase | 20 µg/mL | 26.64 µM | – | – | 2.91 fold | 3.26 fold
COc1c(O)c(C)c2c(c1OC)O[C@](C)(CC/C=C(\C)CC/C=C(\C)CC/C=C(\C)CC/C=C(\C)CC/C=C(\C)CC/C=C(\C)CC/C=C(\C)CCC=C(C)C)C=C2 [compound 2, hydro-Q9 chromene] | 10.7 µM | 10.8 µM | dose-dependent increase | 40 µg/mL | 50.34 µM | 7.36 µM | 7.4 µM | dose-dependent increase | 40 µg/mL | 50.34 µM | – | – | 3.68 fold | 3.79 fold
Cc1c(C)c2c(c(C)c1O)CC[C@@](C)(CCC[C@H](C)CCC[C@H](C)CCCC(C)C)O2 [compound 1, RRR-α-tocopherol] | 2.51 µM | 2.5 µM | – | – | – | 9.19 µM | 9.2 µM | – | – | – | – | – | – | –
